Assay results as given in US6344208B1, “Pheromone baits for social insects” (priority 1989, dated 2002).

Columns and labels:
Type in all cases: in vivo
Atta sexdens [1] = assay: Field Trial 5: Mirex sachets with single pheromone component scattered randomly at cutting site; settings: Trial 5, 50 μl component; for discovery and opening of sachets: sachets over about 10 m^2 where ants were cutting leaves
Protocol: (§1) The insecticide bait Mirex was used in all the trials. In Trials 3 and 4 the bait was presented to the ants in black plastic sachets 8 cm^2 placed inside wire cages, which provided protection from cattle, horses, small manamals and birds. The empty cages were placed in the field 24 hours prior to the start of the experiment. The Mire sachets were prepared and a component of mandibular gland alarm pheromone of the ant species concerned was added to the treatment sachets. In Trial 5 the sachets were not placed in cages but were scattered randomly at the cutting site. Five components or the alarm pheromone were tested. Rubber septa, used to provide a slow-release substrate, were dosed with 50 μl of component and then sealed inside the Mirex sachets. Control sachets were sealed with untreated rubber septa. The sachets were transferred immediately to the field sites. The fate of the sachets was then monitored over a 3 day period.
Trial 5: Sachets containing, separately, citral (E), 4-methyl-3-heptanone H and 6-methyl-5-hepten-2-one (G) were distributed randomly over an area of about 10 m^2 where ants were actively cutting leaves.

Atta sexdens [2] = assay: Field Trial 3: Mirex sachets with single pheromone component placed 1 metre from nest entrance on active trails; settings: Trial 3, 50 μl component on rubber septum, components tested separately
Protocol: as §1
Trial 3: Sachets were placed 1 metre from the nest entrance hole on active trials of A. sexdens. Five synthetic components of the alarm pheromone were tested, separately; citral, farnesol, 6-methyl-5-hepten-2-one, 4-methyl-3-heptanone and geraniol. […] The results for the five synthetic pheromones were pooled.

Acromyrmex octospinosus = assay: Research and laboratory trials on behaviour induced by synthetic alarm pheromone components; settings: research by the applicant
Source text: Recent research by the applicant on the neotropical leaf-cutting ant Acromyrmex octospinosus has shown that […] components of the alarm pheromone of this ant, namely 3-octanol and 3-octanone, attract nestmates and induce the laying of trails around the source which ensure that nestmates are then attracted towards the source for some time and attack the source on arrival.
It is expected that this surprising effect will be shown by synthetic components of pheromones of other insects, especially social insects.
The synthetic pheromone compounds may therefore be used in food baits in contrast to what would be expected.

Structure (SMILES)	discovery and opening of sachets (Atta sexdens [1])	fate of test sachets (Atta sexdens [2])	time until all the bait had been transported back to the nest (Atta sexdens [1]) [min]	behaviour induced in nestmates by the alarm pheromone component (Acromyrmex octospinosus)
CC(=O)CCC=C(C)C [6-methyl-5-hepten-2-one]	discovered and opened immediately	cut open and the contents transported into the nest	–	–
CCCC(C)C(=O)CC (centres unmarked) [4-methyl-3-heptanone]	discovered and opened immediately	cut open and the contents transported into the nest	≤ 30	–
CC(C)=CCC/C(C)=C/CO [geraniol]	–	cut open and the contents transported into the nest	–	–
CCCCCC(O)CC (centres unmarked) [3-octanol]	–	–	–	mainly controls attraction to the source, the laying of pheromone trails radiating out from the source, and biting
CC(C)=CCCC(C)=CCCC(C)=CCO [farnesol]	–	cut open and the contents transported into the nest	–	–
CCCCCC(=O)CC [3-octanone]	–	–	–	mainly causes recruitment of ants from the peripheral area
CC(C)=CCCC(C)=CC=O [citral]	discovered and opened immediately	cut open and the contents transported into the nest	–	–
